We go through twelve compounds from patent publication US8481494B2, “Compounds for the treatment of diseases related to protein misfolding” (priority 2009, dated 2013).

By solubility is commonly meant the concentration that dissolves in the medium under given conditions. A low value points to a poorly soluble substance. A word on the IC50: it is the concentration that gives 50% inhibition.

≈ marks a conversion by molar mass, not a printed value. Where two headings read alike, the source gives them in different places.

Series [1] is described as follows: Solubility of the unprotected aminopyrazole trimers (stock solutions). To be noted: water (class a) or DMSO (class b).
Description: The ligands were dissolved in 100% DMSO as 4.95 mM stock solutions and were stored at −20° C.
The target of another series is T1, Aβ(1-42) (Homo sapiens, UniProt P05067).
T1 construct: Aβ(1-42)-peptide (Bachem, Bubendorf, Germany) was prepared in HFIP; purchased Bachem, Bubendorf
T1 sequence (P05067 672-713 limits assumed): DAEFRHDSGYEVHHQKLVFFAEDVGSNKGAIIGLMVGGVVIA
Nature of the series: ThT equilibrium inhibition assay of Aβ aggregation. The conditions noted are these: Aβ(1-42), in words. In kind it is biochemical. The method, then:
After 72 h, the aggregation process has reached a maximum in the absence or presence of any trimeric ligand, even for the slow Aβ (1-40) peptide. The respective equilibrium concentration is then indicated by the relative fluorescence intensity reached at the end point. The full series of new aminopyrazole trimer derivatives was subjected to ThT inhibition experiments and the final equilibrium was analyzed by comparison of the respective fluorescence intensities of intercalated dye at 482 nm (exc. at 442 nm). […] Their proposed mechanism of action is discussed within the next chapters together with all the other biophysical, biochemical as well as modeling data.
Thioflavin T (ThT) measurements were carried out in a 384-well plate (Nunc GmbH, Wiesbaden, Germany) in an InfiniTe 200 plate reader (Tecan GmbH, Crailsheim, Germany). Fluorescence intensity was measured at 37° C., 446 nm excitation wavelength (bandwidth 9 nm) and 490 nm emission wavelength with a bandwidth of 20 nm. Each data point was averaged over 40 lamp flashes. Each measurement cycle was started by shaking the sample carrier orbitally for 30 s at medium intensity to avoid settling of larger aggregates. The 384-well plate was covered with a transparent and DMSO-stable film (Nunc GmbH, Wiesbaden, Germany). Each single sample was composed of 33 μM Aβ(1-40) or rather Aβ(1-42) in 10 mM PBS (phosphate buffered saline), 10.7% DMSO, 10 μM ThT and 198 μM of the test compound. For graph representation emission values of fourfold samples were averaged. Each test compound was measured separately, both in 10 mM PBS and 10 mM PBS with ThT to exclude any potential interactions between ligand and ThT.
The ThT assay solution was briefly centrifugated and it was pipetted in a 384-well plate. The ThT fluorescence was measured at λEx=446 nm and λEm=490 nm. Each point is the average of quadruplication.

Series [2] relates to differentiated rat pheochromocytoma (PC-12) cells. The experiment in a line: cells. To be noted: for PC-12 cell protection: in words, compared to the Trimer standard. As to the method:
Next, to examine whether the aminopyrazole trimers could protect cell from Aβ42-induced neurotoxicity, cells were treated for […] with 10 μM Aβ(1-42), a concentration that produces 30 to 40% decrease in cell viability, in the absence or presence of 100 μM of each compound. The viability of the cells then was assessed using the MTT assay.
MTT viability assays. Cell viability assays were performed as described in Fradinger et al. (Fradinger et al., PNAS, 2008). Rat pheochromocytoma (PC-12) cells were maintained in F-12 nutrient mixture with Kaighn's modification (F-12K) (Gibco BRL, Carlsbad, Calif.) with 15% heat-inactivated horse serum and 2.5% FBS at 37° C. in an atmosphere of 5% CO2. For cell viability assays, cells were plated in 96-well plates at a density of 25,000 cells per well in differentiation media (F-12K, 0.5% FBS, […] nerve growth factor) and maintained for 48 h. Aβ42 was solubilized in a minimal amount of DMSO (Sigma) and then diluted in the F-12K media in the absence or presence of the compounds and then added to cells and incubated for 48 h at 37° C. The final Aβ42 concentration was always kept constant at 10 μM. The stock solutions of the compounds were prepared at 10 mM in DMSO and diluted in the F-12K media at the required concentration. Negative controls included DMSO at the same concentration as in the peptide solutions and media alone. A positive control was […] staurosporine as lethal dose which represented 100% reduction in cell viability, based on which the percentage viability of all of the experimental conditions was calculated. Cell viability was assessed quantitatively by the CellTiter 96 Non-Radioactive Cell Proliferation Assay (Promega). Briefly, 15 μl of 3-(4,5-dimethylthiazol-2-yl)-2,5-diphenyltetra-zolium bromide (MTT) dye solution was incubated with the cells for 3 h. Then 100 μl of solubilization/stop solution was added and the plates were incubated overnight in the dark to ensure complete solubilization. Plates were read by using a Synergy HT microplate reader (BioTek), and the absorbance at 570 nm (formazan product) minus the absorbance at 630 nm (background) was recorded. Corrected absorbance was used to calculate the percent cell viability from the experimental change (Amedia-Aexperimental) over the dynamic range (Amedia-Astaurosporine). At least three independent experiments with six replicates (n≧18) were carried out, and the results were averaged.
To determine the IC50 value of each of the compounds, dose-dependence MTT experiments with the compounds were conducted. Aβ42 was used at 10 μM and the compounds were used at 100, 30, 10, 3, 1 and 0.3 μM. Three independent experiments with six replicates (n≧18) were carried out, and results were averaged. The data for each compound was fitted to the following equation to get the IC50 values. y=Bottom+((Top−Bottom)/(1+10^(x-log(IC^50^))))
Top: the y value at which the top of the sigmoidal curve becomes parallel to the X-axis; Bottom: the y value at which the bottom of the sigmoidal curve becomes parallel to the X-axis.
Also, MTT viability assays were run with differentiated PC-12 cells.

Setting [3] is: Rattus norvegicus, PC-12, read-out: IC50 of inhibition of Aβ-induced toxicity.

As for `CC(NC(=O)C(CCCCN)NC(=O)c1cc(NC(=O)c2cc(NC(=O)c3cc([N+](=O)[O-])n[nH]3)n[nH]2)n[nH]1)C1CCCCC1.O=C(O)C(F)(F)F` (stereo not shown) [Trimer-Lys-Che, N-(6-Amino-1-(1-cyclohexylethylamino)-1-oxohexan-2-yl)-3-(3-(3-nitro-1H-pyrazole-5-carboxamido)-1H-pyrazole-5-carboxamido)-1H-pyrazole-5-carboxamide-trifluoro-acetate], the solubility in series [1] was over 4.95 mM. For the same compound, the “ThT values compared with the original trimer” value at Aβ(1-42) is reported as “surpass the original trimer activity”.
For `NCCNC(=O)c1cc(NC(=O)c2cc(NC(=O)c3cc([N+](=O)[O-])n[nH]3)n[nH]2)n[nH]1` [Trimer-diamine, N-(2-Aminoethyl)-3-(3-(3-nitro-1H-pyrazole-5-carboxamido)-1H-pyrazole-5-carboxamido)-1H-pyrazole-5-carboxamide], in that order: 0.2 to 4.95 mM (≈ 83.5 to 2070 µg/mL) and “above the trimer standard”.
For `CC(NC(=O)c1cc(NC(=O)c2cc(NC(=O)c3cc([N+](=O)[O-])n[nH]3)n[nH]2)n[nH]1)C1CCCCC1` (stereo not shown) [Trimer-Che, N-(1-Cyclohexylethyl)-3-(3-(3-nitro-1H-pyrazole-5-carboxamido)-1H-pyrazole-5-carboxamido)-1H-pyrazole-5-carboxamide], the solubility in series [1] is 0.2 to 4.95 mM (≈ 96.9 to 2400 µg/mL). Also, the “ThT values compared with the original trimer” value at Aβ(1-42) was “surpass the original trimer activity”.
Regarding `CCOC(=O)COCCOCCOCCNC(=O)c1cc(NC(=O)c2cc(NC(=O)c3cc([N+](=O)[O-])n[nH]3)n[nH]2)n[nH]1` [Trimer-TEG-OEt, 1-(3-(3-(3-Nitro-1H-pyrazole-5-carboxamido)-1H-pyrazole-5-carboxamido)-1H-pyrazole-5-yl)-1-oxo-5,8,11-trioxa-2-azatridecan-13-oic acid ethyl ester], the PC-12 cell protection result in series [2] was “only very modest”. This compound also gave a solubility in series [1] of 0.2 to 4.95 mM (≈ 119 to 2930 µg/mL).
With `O=C(O)CCCNC(=O)c1cc(NC(=O)c2cc(NC(=O)c3cc([N+](=O)[O-])n[nH]3)n[nH]2)n[nH]1` [Trimer-GABA-OH, 4-(3-(3-(3-Nitro-1H-pyrazole-5-carboxamido)-1H-pyrazole-5-carboxamido)-1H-pyrazole-5-carboxamido)butanoic acid], the IC50 in series [2] (setting [3]) was determined as 18.5 µM. Moreover, the solubility in series [1] lay in the range of 0.2 to 4.95 mM (≈ 92.1 to 2280 µg/mL). Moreover, the “ThT values compared with the original trimer” value at Aβ(1-42) was “above the trimer standard”.
Regarding `CC(NC(=O)C(NC(=O)c1cc(NC(=O)c2cc(NC(=O)c3cc([N+](=O)[O-])n[nH]3)n[nH]2)n[nH]1)C1CCCCC1)C1CCCCC1` (stereo not shown) [Trimer-Chg-Che, N-(1-Cyclohexyl-2-(1-cyclohexylethylamino)-2-oxoethyl)-3-(3-(3-nitro-1H-pyrazol-5-carboxamido)-1H-pyrazol-5-carboxamido)-1H-pyrazol-5-carboxamide], in series [2] (setting [3]), the IC50 was found to be 81 µM. In addition, the solubility in series [1] lay in the range of 0.2 to 4.95 mM (≈ 125 to 3090 µg/mL).
Turning to `COC(=O)CCCNC(=O)c1cc(NC(=O)c2cc(NC(=O)c3cc([N+](=O)[O-])n[nH]3)n[nH]2)n[nH]1` [Trimer-GABA-OMe, 4-(3-(3-(3-Nitro-1H-pyrazole-5-carboxamido)-1H-pyrazole-5-carboxamido)-1H-pyrazole-5-carboxamido)butanoic acid methyl ester], in series [2] (setting [3]), the IC50 is 20.3 µM. For the same compound, the solubility in series [1] is 0.2 to 4.95 mM (≈ 94.9 to 2350 µg/mL). For the same compound, the “ThT values compared with the original trimer” value at Aβ(1-42) was “above the trimer standard”.
In the case of `O=C(O)COCCOCCOCCNC(=O)c1cc(NC(=O)c2cc(NC(=O)c3cc([N+](=O)[O-])n[nH]3)n[nH]2)n[nH]1` [Trimer-TEG-OH, {2-[2-(2-{[5-({5-[(5-Nitro-2H-pyrazole-3-carbonyl)-amino]-2H-pyrazole-3-carbonyl}-amino)-2H-pyrazole-3-carbonyl]-amino}-ethoxy)-ethoxy]-ethoxy}-acetic acid], the IC50 in series [2] (setting [3]) was 35.3 µM. Besides, in series [2], the PC-12 cell protection entry was “only very modest”. Also, in series [1], the solubility lay in the range of 0.2 to 4.95 mM (≈ 113 to 2790 µg/mL).
For `CCCCCCCCCCCCNC(=O)COCCOCCOCCNC(=O)c1cc(NC(=O)c2cc(NC(=O)c3cc([N+](=O)[O-])n[nH]3)n[nH]2)n[nH]1` [Trimer-TEG-Dodecyl, 3-Nitro-N-(5-(5-(11-oxo-3,6,9-trioxa-12-azatetracosylcarbamoyl)-1H-pyrazol-3-ylcarbamoyl)-1H-pyrazol-3-yl)-1H-pyrazole-5-carboxamide], in series [2] (setting [3]), the half-inhibitory concentration (IC50) was over 100 µM. This compound displayed a solubility in series [1] of 0.2 to 4.95 mM (≈ 146 to 3620 µg/mL).
As to “Trimer-TEG-LPFFD-OH [1-(3-(3-(3-nitro-1H-pyrazole-5-carboxamido)-1H-pyrazole-5-carbox-amido)-1H-pyrazol-5-yl)-1-oxo-5,8,11-trioxa-2-azatridecan-13-carboxamido-(S)-leucinyl-(S)-prolinyl-(S)-phenylalaninyl-(S)-phenylalaninyl-(S)-aspartic acid]”, the IC50 in series [2] (read-out: IC50 of inhibition of Aβ-induced toxicity, PC-12 cells, MTT, Aβ42 10 μM, ligand 0.3-100 μM) is 10.1 µM.
On to `NCCCC[C@H](NC(=O)c1cc(NC(=O)c2cc(NC(=O)c3cc([N+](=O)[O-])n[nH]3)n[nH]2)n[nH]1)C(=O)NCCCOCCOCCOCCCNC(=O)[C@H](CCCCN)NC(=O)c1cc(NC(=O)c2cc(NC(=O)c3cc([N+](=O)[O-])n[nH]3)n[nH]2)n[nH]1` [Trim-Lys-TEGDA-Lys-Trim, N,N′-((5S,23S)-1,27-diamino-6,22-dioxo-11,14,17-trioxa-7,21-diazaheptacosane-5,23-diyl)bis(3-(3-(3-nitro-1H-pyrazole-5-carboxamido)-1H-pyrazole-5-carboxamido)-1H-pyrazole-5-carboxamide)], for which the IC50 in series [2] (setting [3]) is 21.5 µM. For the same compound, the solubility in series [1] was over 4.95 mM.
The compound `CC(NC(=O)COCCOCCOCCNC(=O)c1cc(NC(=O)c2cc(NC(=O)c3cc([N+](=O)[O-])n[nH]3)n[nH]2)n[nH]1)C1CCCCC1` (stereo not shown) [Trimer-TEG-Che, N-(13-Cyclohexyl-11-oxo-3,6,9-trioxa-12-azatetradecyl)-3-(3-(3-nitro-1H-pyrazole-5-carboxamido)-1H-pyrazole-5-carboxamido)-1H-pyrazole-5-carboxamide] had a solubility in series [1] of 0.2 to 4.95 mM (≈ 135 to 3330 µg/mL).
